The record followed here is patent publication US20240058450A1, “BCL-XL Inhibitory Compounds Having Low Cell Permeability and Antibody Drug Conjugates Including the Same” (AbbVie Inc., priority 2014, published 2024).

Where two headings read alike, the source gives them in different places. Bounds are passed on as bounds.

The test system of experiment [1] is permeabilized Bcl-xL dependent Molt-4 cells. As to the kind of experiment: Cytochrome C release in selectively (digitonin) permeabilized Molt-4 cells. In kind it is cell-based, human. Particulars: Homo sapiens, MOLT-4, 4 h, 4 h treatment, read-out: Molt-4 Permeabilized Cyt C Release. The source says:
The permeabilization of the mitochondrial outer membrane to release proteins from the intermembrane space into the cytosol is a pivotal event in the process of apoptosis. Specifically, the release of cytochrome C triggers the formation of the apoptosome which, in turn, results in caspase activation and other events that will commit the cell to undergo programmed cell death (Goldstein el al., 2005, Cell Death and Differentiation 12:453). The process of mitochondrial outer membrane permeabilization (MOMP) is controlled by the Bcl-2 family members. It is promoted by the multidomain pro-apoptotic proteins Bax and Bak which, upon activation, oligomerize on the outer mitochondrial membrane and form pores to ultimately release cytochrome C. This action is antagonized by the antiapoptotic members, including Bcl-2 and Bcl-xL. Compounds that are capable of inhibiting Bcl-2 or Bcl-xL, for example, in cells that depend upon these proteins for survival, can cause activation of Bax and or Bak, MOMP, release of cytochrome C and the mentioned downstream steps in the apoptotic process. This process of cytochrome C release can be measured in cells via Western blot of both mitochrondrial and cytosolic fractions, and can be used a proxy measurement of apoptosis in cells.
As a means of detecting the ability of a Bcl-xL inhibitor with low cell-permeability to cause release of cytochrome C, the cells can be treated with an agent that causes selective pore formation in the plasma membrane, but not the mitochondrial membrane. Specifically, the cholesterol/phospholipid ratio is much higher in the plasma membrane than the mitochondrial membrane. […] This agent forms insoluble complexes with cholesterol leading to the segregation of cholesterol from its normal phospholipid binding sites. This action, in turn, leads to the formation of holes about 40-50 Å wide in the lipid bilayer. Once the plasma membrane is permeabilized, cytosolic components able to pass over digitonin-formed holes can be washed out, including the cytochrome C that was released from mitochondria to cytosol in the apoptotic cells ((Campos, 2006, Cytometry A 69(6):515-523)).
To determine if Bcl-xL inhibitors were inducing cell death through apoptosis, cytochrome C release was measured in Bcl-xL dependent Molt-4 cells following treatment Specifically, 1×10^6 cells were treated for 4 h (37° C., 5% CO2) with the test compounds in half-log dilutions starting at 3.0 μM and ending at 0.01 μM. Cells were then processed as described in Chen et al., 2011, Mol. Cancer Ther. 10:2340-2350 (the Bcl-2/Bcl-X(L)/Bcl-w inhibitor, navitoclax, enhances the activity of chemotherapeutic agents in vitro and in vivo.).

The target in experiment [2] is Bcl-xL (Homo sapiens, UniProt Q07817). As to the kind of experiment: Time Resolved-Fluorescence Resonance Energy Transfer (TR-FRET) binding assay, competition with probe F-Bak. The method, boiled down:
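TR-FRET binding assay run at room temperature for 2 h after mixing compound with Bcl-xL protein, F-Bak probe and Tb-labelled antibody. Test compounds diluted from a 2× 50 μM stock. Ki values derived via Wang's equation from 520/495 nm emission under 340 nm excitation, in the absence of serum or with 1% HS.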

Experiment [3] deals with Molt-4 human acute lymphoblastic leukemia cells. As to the kind of experiment: Molt-4 cell viability assay (CellTiter-Glo, 48 hours, 10% HS). In kind it is cell-based. The following applies: Homo sapiens, MOLT-4, 48 h, non-permeabilized cells. The method, boiled down:
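Cells were seeded at 12,500 per well in medium with 10% human serum and exposed to a 3-fold compound dilution series from 10 μM to 0.0005 μM. After 48 h, viable cells were quantified by CellTiter-Glo luminescence. Each concentration was run in duplicate on at least 3 occasions.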

The mark [4] stands for this setting: in the presence of 1% HS, read-out: Bcl-xL Binding Ki (nM, 1% HS).
Where [5] appears, read: without HS, read-out: Bcl-xL Binding Ki.

Sequence of Bcl-xL (Q07817 whole entry): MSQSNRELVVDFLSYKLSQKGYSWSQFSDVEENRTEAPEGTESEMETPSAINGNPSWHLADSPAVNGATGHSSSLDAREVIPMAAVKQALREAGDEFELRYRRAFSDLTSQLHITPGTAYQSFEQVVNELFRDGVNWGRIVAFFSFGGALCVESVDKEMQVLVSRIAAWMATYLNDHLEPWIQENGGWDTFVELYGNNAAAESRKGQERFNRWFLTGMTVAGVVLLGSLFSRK

As for `Cc1c(-c2ccc(N3CCc4cccc(C(=O)Nc5nc6ccccc6s5)c4C3)nc2C(=O)O)cnn1CC12CC3(C)CC(C)(C1)CC(OCCNCCS(=O)(=O)O)(C3)C2` [Example 1.2, 6-[8-(1,3-benzothiazol-2-ylcarbamoyl)-3,4-dihydroisoquinolin-2 (1H)-yl]-3-(1-[(3,5-dimethyl-7-{12-[(2-sulfoethyl)amino]ethoxy}tricyclo[3.3.1.1^3,7]dec-1-yl)methyl]-5-methyl-1H-pyrazol-4-yl}pyridine-2-carboxylic acid], the EC50 in experiment [1] is below 0.5 nM. The inhibition constant (Ki) in experiment [2] (setting [4]) is 0.16 nM; in experiment [2] (setting [5]), below 0.001 nM.

In the case of `Cc1c(-c2ccc(N3CCc4c(OCCNCCC(=O)O)ccc(C(=O)Nc5nc6ccccc6s5)c4C3)nc2C(=O)O)cnn1CC12CC3(C)CC(C)(C1)CC(OCCN(C)CCS(=O)(=O)O)(C3)C2` [Example 1.49, 6-[8-(1,3-benzothiazol-2-ylcarbamoyl)-5-{2-[(2-carboxyethyl)amino]ethoxy}-3,4-dihydroisoquinolin-2 (1H)-yl]-3-{1-[(3,5-dimethyl-7-{2-[methyl(2-sulfoethyl)amino]ethoxy}tricyclo[3.3.1.1^3,7]dec-1-yl)methyl]-5-methyl-1H-pyrazol-4-yl}pyridine-2-carboxylic acid], the EC50 in experiment [1] was below 0.5 nM; in experiment [3], 92 nM.

`Cc1c(-c2ccc(-c3ccc4nccc(C(=O)Nc5nc6ccccc6s5)c4c3)nc2C(=O)O)cnn1CC12CC3(C)CC(C)(C1)CC(OCCNCCS(=O)(=O)O)(C3)C2` [Example 1.70, 6-[4-(1,3-benzothiazol-2-ylcarbamoyl)quinolin-6-yl]-3-{1-[(3,5-dimethyl-7-{2-[(2-sulfoethyl)amino]ethoxy}tricyclo[3.3.1.1^3,7]dec-1-yl)methyl]-5-methyl-1H-pyrazol-4-yl}pyridine-2-carboxylic acid] showed an EC50 in experiment [3] of 193 nM. The Ki in experiment [2] (setting [4]) is 0.275 nM; in experiment [2] (setting [5]), below 0.01 nM.

As for `Cc1c(-c2ccc(-c3cnc4cccc(C(=O)Nc5nc6ccccc6s5)c4c3)nc2C(=O)O)cnn1CC12CC3(C)CC(C)(C1)CC(OCCNCCC(=O)O)(C3)C2` [Example 1.71, 6-[5-(1,3-benzothiazol-2-ylcarbamoyl)quinolin-3-yl]-3-{1-[(3-{2-[(2-carboxyethyl)amino]ethoxy}-5,7-dimethyltricyclo[3.3.1.1^3,7]dec-1-yl)methyl]-5-methyl-1H-pyrazol-4-yl}pyridine-2-carboxylic acid], the EC50 in experiment [3] was 677 nM. Further, the Ki in experiment [2] (setting [4]) was 0.061 nM; in experiment [2] (setting [5]), below 0.01 nM.

In experiment [3], `Cc1c(-c2ccc(N3CCc4cccc(C(=O)Nc5nc6ccccc6s5)c4C3)nc2C(=O)O)cnn1CC12CC3(C)CC(C)(C1)CC(OCCNCCCc1cn([C@@H]4O[C@H](C(=O)O)[C@@H](O)[C@H](O)[C@H]4O)nn1)(C3)C2` [Example 1.73, 8-(1,3-benzothiazol-2-ylcarbamoyl)-2-{6-carboxy-5-[1-({3-[2-({3-[1-(beta-D-glucopyranuronosyl)-1H-1,2,3-triazol-4-yl]propyl}amino)ethoxy]-5,7-dimethyltricyclo[3.3.1.1^3,7]dec-1-yl}methyl)-S-methyl-1H-pyrazol-4-yl]pyridin-2-yl}-1,2,3,4-tetrahydroisoquinoline] yielded an EC50 of 3500 nM. Also, the Ki is 34 nM in experiment [2] (setting [4]) and 0.88 nM in experiment [2] (setting [5]).

In experiment [3], `Cc1c(-c2ccc(-c3cc4cccc(C(=O)Nc5nc6ccccc6s5)c4[nH]3)nc2C(=O)O)cnn1CC12CC3(C)CC(C)(C1)CC(OCCNCCS(=O)(=O)O)(C3)C2` [Example 1.74, 6-[7-(1,3-benzothiazol-2-ylcarbamoyl)-1H-indol-2-yl]-3-{1-[(3,5-dimethyl-7-{2-[(2-sulfoethyl)amino]ethoxy}tricyclo[3.3.1.1^3,7]dec-1-yl)methyl]-5-methyl-1H-pyrazol-4-yl}pyridine-2-carboxylic acid] registered an EC50 of 5.7 nM. In addition, the inhibition constant (Ki) in experiment [2] (setting [4]) is 0.016 nM; in experiment [2] (setting [5]), below 0.01 nM.

As to `CNCCCc1cc2c(c(C(=O)Nc3nc4ccccc4s3)c1)CN(c1ccc(-c3cnn(CC45CC6(C)CC(C)(C4)CC(OCCNCCS(=O)(=O)O)(C6)C5)c3C)c(C(=O)O)n1)CC2` [Example 1.75, 6-[8-(1,3-benzothiazol-2-ylcarbamoyl)-6-[3-(methylamino)propyl]-3,4-dihydroisoquinolin-2 (1H)-yl]-3-{1-[(3,5-dimethyl-7-{2-[(2-sulfoethyl)amino]ethoxy}tricyclo[3.3.1.1^3,7]dec-1-yl)methyl]-5-methyl-1H-pyrazol-4-yl}pyridine-2-carboxylic acid], the EC50 in experiment [3] came to 409 nM. Also, the Ki stood at 0.85 nM in experiment [2] (setting [4]) and 0.016 nM in experiment [2] (setting [5]).

As for `Cc1c(-c2ccc(-c3ccc4cncc(C(=O)Nc5nc6ccccc6s5)c4c3)nc2C(=O)O)cnn1CC12CC3(C)CC(C)(C1)CC(OCCNCCS(=O)(=O)O)(C3)C2` [Example 1.78, 6-[4-(1,3-benzothiazol-2-ylcarbamoyl)isoquinolin-6-yl]-3-{1-[(3,5-dimethyl-7-(2-[(2-sulfoethyl)amino]ethoxy}tricyclo[3.3.1.1^3,7]dec-1-yl)methyl]-5-methyl-1H-pyrazol-4-yl}pyridine-2-carboxylic acid], in experiment [3], the EC50 turned out to be 2.22 nM. The Ki in experiment [2] (setting [4]) and in experiment [2] (setting [5]) was below 0.01 nM in each case.

For `Cc1c(-c2ccc(N3CCc4cccc(C(=O)Nc5nc6ccccc6s5)c4C3)nc2C(=O)O)cnn1CC12CC3(C)CC(C)(C1)CC(OCCNCC[C@H](O)[C@H](O)CO)(C3)C2` [Example 1.80], the EC50 in experiment [3] came out at 355 nM. Besides, the Ki in experiment [2] (setting [4]) was 0.78 nM; in experiment [2] (setting [5]) it was 0.053 nM.

On to `Cc1c(-c2ccc(N3CCc4cccc(C(=O)Nc5nc6ccccc6s5)c4C3)nc2C(=O)O)cnn1CC12CC3(C)CC(C)(C1)CC(OCCNC[C@H](O)[C@@H](O)CO)(C3)C2` [Example 1.81, 6-[8-(1,3-benzothiazol-2-ylcarbamoyl)-3,4-dihydroisoquinolin-2 (1H)-yl]-3-(1-{[3,5-dimethyl-7-(2-{[(2S,3S)-2,3,4-trihydroxybutyl]amino}ethoxy)tricyclo[3.3.1.1^3,7]dec-1-yl]methyl}-5-methyl-1H-pyrazol-4-yl}pyridine-2-carboxylic acid], for which the EC50 in experiment [3] was 252 nM. Besides, the values for the Ki in experiment [2] (setting [4]) and in experiment [2] (setting [5]) were 0.37 nM and 0.011 nM, respectively.

In experiment [3], `Cc1c(-c2ccc(N3CCc4cccc(C(=O)Nc5nc6ccccc6s5)c4C3)nc2C(=O)O)cnn1CC12CC3(C)CC(C)(C1)CC(OCCNC[C@H](O)[C@H](O)[C@@H](O)[C@H](O)[C@H](O)CO)(C3)C2` [Example 1.82] showed an EC50 of 373 nM. Also, the Ki in experiment [2] (setting [4]) was 0.46 nM; in experiment [2] (setting [5]), 0.023 nM.

`Cc1c(-c2ccc(N3CCc4cccc(C(=O)Nc5nc6ccccc6s5)c4C3)nc2C(=O)O)cnn1CC12CC3(C)CC(C)(C1)CC(OCCNS(=O)(=O)CCCNC(CO)CO)(C3)C2` [Example 1.83] showed an EC50 in experiment [3] of 178 nM. In addition, the Ki in experiment [2] (setting [4]) amounted to 0.66 nM; in experiment [2] (setting [5]), 0.031 nM.

In experiment [3], `Cc1c(-c2ccc(N3CCc4cccc(C(=O)Nc5nc6ccccc6s5)c4C3)nc2C(=O)O)cnn1CC12CC3(C)CC(C)(C1)CC(OCCNCCC(=O)NC(CO)(CO)CO)(C3)C2` [Example 1.84, 6-[8-(1,3-benzothiazol-2-ylcarbamoyl)-3,4-dihydroisoquinolin-2 (1H)-yl]-3-{1-[(3-{2-[(3-{[1,3-dihydroxy-2-(hydroxymethyl)propan-2-yl]amino}-3-oxopropyl)amino]ethoxy}-5,7-dimethyltricyclo[3.3.1.1^3,7]dec-1-yl)methyl]-5-methyl-1H-pyrazol-4-yl}pyridine-2-carboxylic acid] registered an EC50 of 259 nM. Also, the Ki in experiment [2] (setting [4]) turned out to be 1.2 nM; in experiment [2] (setting [5]), 0.069 nM.
